Measurements taken from PubChem BioAssay AID330 (DTP/NCI, 2004).
“And” between values parts separate entries of the source, which are not always exact repeats. Equal entries are not always repeated. Inconclusive results and toxic doses are left out. Rule for the calls: active = survival T/C of 150% or more; inactive = T/C below 125% in these data.

Test system: P388 leukemia ip, CD2F1 mice, survival T/C
Assay: NCI In Vivo Anticancer Drug Screen. Data for tumor model P388 Leukemia (intraperitoneal) in CD2F1 (CDF1) mice
Settings: endpoint: median survival time, higher = longer survival
Method in brief: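 Mice carrying the transplanted tumor received test compound or vehicle. Survival was recorded in each group, and the value is the treated-group measurement divided by that of the vehicle-treated control group.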

[1] = dose: 25.0 mg/kg/injection, schedule: Q01DX009 (ip), vehicle: saline with Tween-80
[2] = dose: 50.0 mg/kg/injection, schedule: Q01DX009 (ip), vehicle: saline with Tween-80
[3] = dose: 100.0 mg/kg/injection, schedule: Q01DX009 (ip), vehicle: saline with Tween-80
[4] = dose: 50.0 mg/kg/injection, schedule: Q01DX005 (ip), vehicle: saline with Tween-80
[5] = dose: 100.0 mg/kg/injection, schedule: Q01DX005 (ip), vehicle: saline with Tween-80
[6] = dose: 200.0 mg/kg/injection, schedule: Q01DX005 (ip), vehicle: saline with Tween-80
[7] = dose: 50.0 mg/kg/injection, schedule: Q01DX005 (ip), vehicle: Klucel (hydroxypropylcellulose) (HPC)
[8] = dose: 100.0 mg/kg/injection, schedule: Q01DX005 (ip), vehicle: Klucel (hydroxypropylcellulose) (HPC)
[9] = dose: 200.0 mg/kg/injection, schedule: Q01DX005 (ip), vehicle: Klucel (hydroxypropylcellulose) (HPC)
[10] = dose: 60.0 mg/kg/injection, schedule: Q01DX005 (ip), vehicle: Klucel (hydroxypropylcellulose) (HPC)
[11] = dose: 50.0 mg/kg/injection, schedule: Q01DX009 (ip), vehicle: Klucel (hydroxypropylcellulose) (HPC)
[12] = dose: 100.0 mg/kg/injection, schedule: Q01DX009 (ip), vehicle: Klucel (hydroxypropylcellulose) (HPC)
[13] = dose: 200.0 mg/kg/injection, schedule: Q01DX009 (ip), vehicle: Klucel (hydroxypropylcellulose) (HPC)
[14] = dose: 6.25 mg/kg/injection, schedule: Q01DX009 (ip), vehicle: saline with Tween-80
[15] = dose: 12.5 mg/kg/injection, schedule: Q01DX009 (ip), vehicle: saline with Tween-80
[16] = dose: 25.0 mg/kg/injection, schedule: Q01DX005 (ip), vehicle: saline with Tween-80

Measured: T/C

Cn1cncc1/C=N\NC(N)=S
inactive: [1] 102 % of control | [2] 88 % of control | dose: 50.0 mg/kg/injection, schedule: Q04DX003 (ip), vehicle: saline 109 % of control | [3] 110 % of control | dose: 100.0 mg/kg/injection, schedule: Q04DX003 (ip), vehicle: saline 102 % of control | dose: 200.0 mg/kg/injection, schedule: Q04DX003 (ip), vehicle: saline 102 % of control

Clc1ccc(/C=N/Nc2nnc3c(n2)[nH]c2ccccc23)cc1
inactive: dose: 100.0 mg/kg/injection, schedule: Q04DX002 (ip), vehicle: saline with Tween-80 99 % of control | dose: 200.0 mg/kg/injection, schedule: Q04DX002 (ip), vehicle: saline with Tween-80 100 % of control | dose: 400.0 mg/kg/injection, schedule: Q04DX002 (ip), vehicle: saline with Tween-80 90 % of control

c1cc(OCC2CO2)cc(OCC2CO2)c1 (stereo not given)
inactive: dose: 3.12 mg/kg/injection, schedule: Q01DX009 (ip), vehicle: DMSO 88 % of control | dose: 6.25 mg/kg/injection, schedule: Q01DX009 (ip), vehicle: DMSO 88 % of control | dose: 12.5 mg/kg/injection, schedule: Q01DX009 (ip), vehicle: DMSO 100 % of control | dose: 25.0 mg/kg/injection, schedule: Q01DX009 (ip), vehicle: DMSO 104 % of control and 96 % of control | dose: 50.0 mg/kg/injection, schedule: Q01DX009 (ip), vehicle: DMSO 104 % of control | dose: 100.0 mg/kg/injection, schedule: Q01DX009 (ip), vehicle: DMSO 95 % of control

COC(=O)c1c(-c2ccc3c(c2)OCO3)cn(C)c1C
inactive: [4] 97 % of control | [5] 91 % of control | [6] 87 % of control

COc1ccc(N2C(=O)CC(c3cc(OC)c(OC)c(OC)c3)CC2=O)cc1
inactive: [7] 94 % of control | [8] 89 % of control | [9] 90 % of control

CCC(C)/C(=C\C#N)NCCCCCCN/C(=C/C#N)C(C)CC (stereo not given)
inactive: dose: 15.0 mg/kg/injection, schedule: Q01DX005 (ip), vehicle: Klucel (hydroxypropylcellulose) (HPC) 95 % of control | dose: 30.0 mg/kg/injection, schedule: Q01DX005 (ip), vehicle: Klucel (hydroxypropylcellulose) (HPC) 86 % of control | [10] 90 % of control | dose: 240.0 mg/kg/injection, schedule: Q01DX005 (ip), vehicle: Klucel (hydroxypropylcellulose) (HPC) 91 % of control

O=P1(c2ccccc2)C=C(c2ccccc2)NC(c2ccccc2)=C1
inactive: [4] 93 % of control | [6] 90 % of control

NC(CS)=NCC12CC3CC(CC(C3)C1)C2
inactive: dose: 7.5 mg/kg/injection, schedule: Q01DX005 (ip), vehicle: saline with Tween-80 100 % of control | dose: 15.0 mg/kg/injection, schedule: Q01DX005 (ip), vehicle: saline with Tween-80 100 % of control | dose: 30.0 mg/kg/injection, schedule: Q01DX005 (ip), vehicle: saline with Tween-80 115 % of control

Cn1c(N)c(C(=O)/C=C/c2ccccc2)c(=O)[nH]c1=O
inactive: [7] 95 % of control | [8] 88 % of control | [9] 88 % of control

O=C(N/N=C(/C(=N/NC(=O)c1ccccc1)c1ccccc1)c1ccccc1)c1ccccc1
inactive: [3] 100 % of control | dose: 200.0 mg/kg/injection, schedule: Q01DX009 (ip), vehicle: saline with Tween-80 95 % of control | dose: 400.0 mg/kg/injection, schedule: Q01DX009 (ip), vehicle: saline with Tween-80 90 % of control

C=C(C)C1CCC2(C)C1CCC1(C)C2CCC2C3(C)C4OC(OC4=O)C(C)(C)C3CCC21C (stereo not given)
inactive: dose: 25.0 mg/kg/injection, schedule: Q01DX005 (ip), vehicle: DMSO 98 % of control | dose: 50.0 mg/kg/injection, schedule: Q01DX005 (ip), vehicle: DMSO 100 % of control | dose: 100.0 mg/kg/injection, schedule: Q01DX005 (ip), vehicle: DMSO 100 % of control | dose: 200.0 mg/kg/injection, schedule: Q01DX005 (ip), vehicle: DMSO 113 % of control | dose: 400.0 mg/kg/injection, schedule: Q01DX005 (ip), vehicle: DMSO 108 % of control

CN(C(=O)C1CC1)c1ccccc1
inactive: [2] 105 % of control | [3] 107 % of control

COc1ccc(NS(=O)(=O)c2ccc(NC(=O)NCCCl)cc2)nn1
inactive: dose: 25.0 mg/kg/injection, schedule: Q01DX005 (ip), vehicle: Klucel (hydroxypropylcellulose) (HPC) 98 % of control | [7] 98 % of control | [9] 98 % of control

Cc1cc([N+](=O)[O-])cc(Br)c1N
inactive: dose: 100.0 mg/kg/injection, schedule: Q01DX001 (ip), vehicle: saline with Tween-80 100 % of control | dose: 200.0 mg/kg/injection, schedule: Q01DX001 (ip), vehicle: saline with Tween-80 95 % of control | dose: 400.0 mg/kg/injection, schedule: Q01DX001 (ip), vehicle: saline with Tween-80 95 % of control

C/C(Cl)=C\c1nc2ccccc2nc1Cl
inactive: dose: 100.0 mg/kg/injection, schedule: Q01DX001 (ip), vehicle: Klucel (hydroxypropylcellulose) (HPC) 100 % of control | dose: 200.0 mg/kg/injection, schedule: Q01DX001 (ip), vehicle: Klucel (hydroxypropylcellulose) (HPC) 92 % of control | dose: 400.0 mg/kg/injection, schedule: Q01DX001 (ip), vehicle: Klucel (hydroxypropylcellulose) (HPC) 92 % of control

CCOC(=O)C(=O)Nc1c(C(=O)OC)cc(C)c(C)c1C#N
inactive: [11] 93 % of control | [12] 94 % of control | [13] 93 % of control

C[N+]1(C)CCCC(O)(C(=O)c2ccccc2)C1 (stereo not given)
inactive: dose: 100.0 mg/kg/injection, schedule: Q01DX001 (ip), vehicle: saline 98 % of control | dose: 200.0 mg/kg/injection, schedule: Q01DX001 (ip), vehicle: saline 100 % of control

CCCCNCCC(SSSC(CCNCCCC)c1ccc(Cl)cc1)c1ccc(Cl)cc1 (stereo not given)
inactive: [14] 100 % of control | [15] 100 % of control | [1] 90 % of control

OCn1nnc2ccccc21
inactive: dose: 25.0 mg/kg/injection, schedule: Q01DX009 (ip), vehicle: Klucel (hydroxypropylcellulose) (HPC) 116 % of control | [11] 102 % of control | [12] 112 % of control | [13] 106 % of control

CN(C)CCCNc1ccc(O)c2c1C(=O)c1ccccc1C2=O
inactive: dose: 12.5 mg/kg/injection, schedule: Q01DX009 (ip), vehicle: water 93 % of control | dose: 25.0 mg/kg/injection, schedule: Q01DX009 (ip), vehicle: water 97 % of control | dose: 50.0 mg/kg/injection, schedule: Q01DX009 (ip), vehicle: water 96 % of control | dose: 100.0 mg/kg/injection, schedule: Q01DX009 (ip), vehicle: water 104 % of control

CC1OC(Nc2ncnc3nc[nH]c23)C(O)C(O)C1NC(=O)CNC(=O)CCCCCCCCC/C=C\C(C)(C)C (stereo not given)
inactive: dose: 0.25 mg/kg/injection, schedule: Q01DX009 (ip), vehicle: distilled water + Tween-80 113 % of control | dose: 0.5 mg/kg/injection, schedule: Q01DX009 (ip), vehicle: distilled water + Tween-80 113 % of control and 123 % of control | dose: 4.0 mg/kg/injection, schedule: Q01DX009 (ip), vehicle: distilled water + Tween-80 100 % of control

CN1C(=O)/C(=C\c2ccccc2)N=C(c2ccccc2)c2cc(Cl)ccc21
inactive: [16] 110 % of control | [4] 96 % of control | [5] 91 % of control

CN(C)c1nc(=O)c2cc(Br)ccc2o1
inactive: [10] 96 % of control | dose: 120.0 mg/kg/injection, schedule: Q01DX005 (ip), vehicle: Klucel (hydroxypropylcellulose) (HPC) 100 % of control

CC(C)(C)SC#CC(Sc1ccccc1)=C(Sc1ccccc1)Sc1ccccc1
inactive: dose: 100.0 mg/kg/injection, schedule: Q04DX003 (ip), vehicle: saline with Tween-80 100 % of control | dose: 200.0 mg/kg/injection, schedule: Q04DX003 (ip), vehicle: saline with Tween-80 100 % of control | dose: 400.0 mg/kg/injection, schedule: Q04DX003 (ip), vehicle: saline with Tween-80 100 % of control

O=C(CCSSCCC(=O)ON1C(=O)CCC1=O)ON1C(=O)CCC1=O
inactive: [14] 100 % of control | [15] 105 % of control | [1] 112 % of control

CCOC(=O)c1ccc(N2N=C3C(=CC(=O)c4ccccc43)SCC2=O)cc1
inactive: dose: 12.5 mg/kg/injection, schedule: Q01DX005 (ip), vehicle: saline with Tween-80 112 % of control | [16] 117 % of control | [4] 116 % of control
